Patent USRE39197E1, “Cell adhesion-inhibiting antiinflammatory and immune-suppressive compounds” (Abbott Laboratories, priority 1998, dated 2006)

Tests used:
[1] = molecular target: T1, interaction between the integrin LFA-1 and its adhesion partner ICAM-1 (Homo sapiens, UniProt P20701); assay: ICAM-1/LFA-1 Biochemical Interaction Assay; assay type: binding; conditions: 4 μM compound; recombinant LFA-1, biotinylated ICAM-1/Ig
T1 construct: Recombinant LFA-1 (100 μL of 0.7 μg/ml mL, ICOS Corporation) in D-PBS; purchased ICOS Corporation
T1 sequence (P20701 26-1170): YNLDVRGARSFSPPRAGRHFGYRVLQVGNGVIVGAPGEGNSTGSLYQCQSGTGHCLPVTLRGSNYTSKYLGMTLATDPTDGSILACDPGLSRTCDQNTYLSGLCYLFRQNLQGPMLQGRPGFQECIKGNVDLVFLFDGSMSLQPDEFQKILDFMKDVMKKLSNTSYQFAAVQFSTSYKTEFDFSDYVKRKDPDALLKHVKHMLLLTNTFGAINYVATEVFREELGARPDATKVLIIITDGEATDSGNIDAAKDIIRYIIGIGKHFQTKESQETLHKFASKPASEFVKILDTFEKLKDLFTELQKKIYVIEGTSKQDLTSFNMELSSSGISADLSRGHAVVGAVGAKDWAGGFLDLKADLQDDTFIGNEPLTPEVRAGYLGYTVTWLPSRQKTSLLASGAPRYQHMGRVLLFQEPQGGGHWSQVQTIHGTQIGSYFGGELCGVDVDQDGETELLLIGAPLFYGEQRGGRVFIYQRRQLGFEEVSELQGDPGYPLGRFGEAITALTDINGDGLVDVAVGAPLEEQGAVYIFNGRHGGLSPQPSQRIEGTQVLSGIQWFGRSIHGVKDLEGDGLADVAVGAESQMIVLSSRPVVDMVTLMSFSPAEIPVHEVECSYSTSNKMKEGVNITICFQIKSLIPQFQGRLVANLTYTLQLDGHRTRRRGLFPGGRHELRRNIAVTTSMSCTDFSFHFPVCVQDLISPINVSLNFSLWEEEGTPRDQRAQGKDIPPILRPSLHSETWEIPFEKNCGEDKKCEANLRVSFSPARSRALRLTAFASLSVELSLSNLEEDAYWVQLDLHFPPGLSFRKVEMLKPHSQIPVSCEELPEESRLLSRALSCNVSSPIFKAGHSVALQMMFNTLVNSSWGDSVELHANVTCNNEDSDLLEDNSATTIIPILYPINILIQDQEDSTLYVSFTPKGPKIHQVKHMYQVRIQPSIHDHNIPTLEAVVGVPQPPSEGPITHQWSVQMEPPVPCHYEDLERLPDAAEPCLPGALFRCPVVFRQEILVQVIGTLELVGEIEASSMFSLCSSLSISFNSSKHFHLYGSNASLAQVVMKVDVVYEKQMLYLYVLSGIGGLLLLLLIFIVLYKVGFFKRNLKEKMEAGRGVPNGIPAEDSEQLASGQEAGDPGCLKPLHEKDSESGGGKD
T1 sequence (P05107 23-769 partner): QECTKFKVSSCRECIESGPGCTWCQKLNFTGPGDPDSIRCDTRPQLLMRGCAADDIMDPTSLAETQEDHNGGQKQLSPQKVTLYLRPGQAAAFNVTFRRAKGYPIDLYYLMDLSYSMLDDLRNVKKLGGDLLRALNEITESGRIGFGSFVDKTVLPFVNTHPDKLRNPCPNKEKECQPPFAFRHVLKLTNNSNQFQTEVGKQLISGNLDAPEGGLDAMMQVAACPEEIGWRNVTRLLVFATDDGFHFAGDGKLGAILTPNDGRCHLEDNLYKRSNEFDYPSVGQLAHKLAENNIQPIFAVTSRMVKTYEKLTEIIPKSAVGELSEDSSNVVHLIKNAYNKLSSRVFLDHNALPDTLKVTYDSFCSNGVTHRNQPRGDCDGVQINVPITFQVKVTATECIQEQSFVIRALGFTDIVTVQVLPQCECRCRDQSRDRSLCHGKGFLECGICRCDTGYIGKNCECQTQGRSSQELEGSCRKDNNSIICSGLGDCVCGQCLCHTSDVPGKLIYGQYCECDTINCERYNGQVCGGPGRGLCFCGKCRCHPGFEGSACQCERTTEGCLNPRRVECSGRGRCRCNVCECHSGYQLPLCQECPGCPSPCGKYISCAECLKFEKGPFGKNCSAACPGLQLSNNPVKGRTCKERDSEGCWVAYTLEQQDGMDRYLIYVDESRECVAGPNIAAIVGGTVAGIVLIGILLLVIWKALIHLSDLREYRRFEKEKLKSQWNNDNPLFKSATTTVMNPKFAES
In short: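 Plates coated with anti-LFA-1 antibody capture recombinant LFA-1; compound dilutions in D-PBS with 2 mM MgCl2 and 1% fish gelatin, then 0.8 μg/mL biotinylated ICAM-1/Ig added, 1 h RT. Bound ICAM-1 detected by Eu-streptavidin time-resolved fluorescence; % inhibition background-corrected against uncoated wells.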

[2] = system: adherence of JY-8 cells (expressing LFA-1) to immobilized ICAM-1; assay: ICAM-1/JY-8 Cell Adhesion Assay; assay type: cell-based, human
[3] = system: adhesion of JY-8 cells (expressing LFA-1) to immobilized ICAM-3; assay: ICAM-3/JY-8 Cell Adhesion Assay; assay type: cell-based, human; conditions: 0.6 μM compound, JY-8 cells on immobilized ICAM-3/Ig; for inhibition at 0.6 µM: Homo sapiens
Description: As such, it is expected that these compounds should block the interaction of LFA-1 with other CAM's. […] Compounds of the present invention may be evaluated for their ability to block the adhesion of JY-8 cells (a human EBV-transformed B cell line expressing LFA-1 on its surface) to immobilized ICAM-3, as follows:
ICAM-3/JY-8 Cell Adhesion Assay
For measurement of inhibitory activity in the cell-based adhesion assay, 96-well microtiter plates are were coated with 50 μL of recombinant ICAM-3/Ig (ICOS Corporation) at a concentration of 10 μg/mL in D-PBS w/o without Ca^++ or Mg^++ overnight at 4° C. The wells are were then washed twice with D-PBS, blocked by addition of 100 μL of D-PBS, 1% bovine serum albumin (BSA) by incubation for 1 hour at room temperature, and washed once with RPMI-1640/5% heat-inactivated fetal bovine serum (adhesion buffer). Dilutions of compounds to be assayed for ICAM-3/LFA-1 antagonistic activity are were prepared in adhesion buffer from 10 mM stock solutions in DMSO and 100 μL are were added to duplicate wells. JY-8 cells (a human EBV-transformed B cell line expressing LFA-1 on its surface; 100 μL at 0.75×10^6 cells/ml mL in adhesion buffer) are were then added to the wells. Microtiter plates are were incubated for 30 minutes at room temperature; the adherent cells are were then fixed with 50 μL of 14% glutaraldehyde/D-PBS and were incubated for an additional 90 minutes. The wells are were washed gently with dH2O; 50 μL of dH2O is was added, following followed by 50 μL of 1% crystal violet. After 5 minutes the plates are were washed 3× times with dH2O; 75 μL of dH2O and 225 μL of 95% EtOH are were added to each well to extract the crystal violet from the cells. Absorbance is was measured at […] in an ELISA plate reader. The percent inhibition of a candidate compound is was calculated using the following equation. [formula]

[4] = Homo sapiens, JY-8, JY-8 cells on immobilized ICAM-1/Ig
[5] = JY-8 cells on immobilized ICAM-1/Ig

Compound	inhibition at 4 µM [1] [%]	IC50 [2, 4] [nM]	inhibition at 0.6 µM [3] [%]	% inhibition @ 4 μM [1] [%]	IC50 [2, 5] [nM]	% inhibition @ 0.6 μM [3] [%]
CC(=O)N1CCN(C(=O)/C=C/c2ccc(Sc3cccc(Cl)c3Cl)c([N+](=O)[O-])c2)CC1 [Example 34, (2,3-Dichlorophenyl)[2-nitro-4-(E-((4-acetylpiperazin-1-yl)carbonyl)ethenyl)phenyl]sulfide]	91	70	100			
O=C(/C=C/c1ccc(Sc2ccccc2Br)c(Cl)c1)N1CCCC(CO)C1 (stereo not drawn) [Example 15, (2-(Bromophenl)[2-chloro-4-(E-((3-hydroxymethyl)piperidin-1-yl)carbonyl)ethenyl)phenyl]sulfide]				88	140	100
CCc1ccccc1Sc1ccc(/C=C/C(=O)N2CCN(C(C)=O)CC2)cc1[N+](=O)[O-] [Example 49, (2-Ethylphenyl)[2-nitro-4-(E-((4-acetylpiperazin-1-yl)carbonyl)ethenyl)phenyl]sulfide]	93	20	100			
O=C(/C=C/c1ccc(Sc2ccccc2Br)c(Cl)c1)N1CCC(O)CC1 [Example 18]				86	130	100
CC(=O)N1CCN(C(=O)/C=C/c2ccc(Sc3ccccc3C)c([N+](=O)[O-])c2)CC1 [Example 45, (2-Methylphenyl)[2-nitro-4-(E-((4-acetylpiperazin-1-yl)carbonyl)ethenyl)phenyl]sulfide]	88	50	100			
CCN(CC)C(=O)N1CCN(C(=O)/C=C/c2ccc(Sc3ccc(Cl)cc3Cl)c([N+](=O)[O-])c2)CC1 [Example 41, (2,4-Dichlorophenyl)[2-nitro-4-(E-((4-(diethylaminocarbonyl)piperazin-1-yl)carbonyl)ethenyl)phenyl]sulfide]	83	110	100			
CC(=O)N1CCN(C(=O)/C=C/c2ccc(Sc3ccc(Br)cc3)c([N+](=O)[O-])c2)CC1 [Example 35, (4-Bromophenyl)[2-nitro-4-(E-((4-acetylpiperazin-1-yl)carbonyl)ethenyl)phenyl]sulfide]	89	430	100			
Cc1ccccc1Sc1ccc(/C=C/C(=O)NCCCN2CCCC2=O)cc1C(F)(F)F [Example 30, (2-Methylphenyl)[2-trifluoromethyl-4-(E-((3-(2-oxopyrrolidin-1-yl)propylamino)carbonyl)ethenyl)phenyl]sulfide]	93	250	100			
O=C(/C=C/c1ccc(Sc2ccccc2Br)c(Cl)c1)N1CCOCC1 [Example 12]				90	360	100
